# PubChem BioAssay (NCI)
#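 Following 48 hours of exposure in 96-well plates, responses at five concentrations were used to interpolate endpoints linearly. GI50 is the concentration that inhibits growth by half. Definition used: TGI = concentration required for complete inhibition of growth.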
# System: MDA-MB-468 breast
# Experiment: NCI-60 cell line screen, 48 h
Structure (SMILES),GI50 [nM],TGI [nM]
COCCn1cc(-c2csc(-c3c[nH]c4ccc(Br)cc34)n2)c2cccnc21,2340,7630
CCCN1CCC(c2ccc(Nc3nc(Nc4cc(F)ccc4C(N)=O)c4cc[nH]c4n3)c(OC)c2)CC1,3470,7390
CCN(Cc1ccc(F)cc1)c1ccc(CO)c(OC)c1,435,2110
CNC(=O)c1cc(Oc2ccc3c(c2)sc2nc(-c4ccc(N(C)C)cc4)cn23)ccn1,300,> 50000
C=C1C(=O)O[C@H]2[C@H]1CC/C(COC(=O)NCCCCCCCCNC(=O)OC/C1=C/CC[C@@]3(C)O[C@H]3[C@H]3OC(=O)C(=C)[C@@H]3CC1)=C\CC[C@@]1(C)O[C@@H]21,191,462
Nc1ncnc2c1ccn2[C@@H]1O[C@H]([C@H](O)c2ccc(Cl)c(F)c2)[C@@H](O)[C@H]1O,40700,> 100000
O=[N+]([O-])c1ccc(Sc2ccncn2)c([N+](=O)[O-])c1,982,3780
CCn1ccc(NS(=O)(=O)c2ccc(N)cc2)nc1=O,> 100000,> 100000
COc1cnc2c(c1)C(=O)c1c-2n(CCCN2CCNCC2)c(=O)c2cc([N+](=O)[O-])ccc12,257,1350
CC1(C)N=C(N)N=C(N)N1c1cccc(Br)c1,400,> 85100
